Experimental data reported in ChEMBL document CHEMBL1201862, “PubChem BioAssay data set” (2004).
The source made the active and inactive calls.

Tests used:
A-375 [1] = assay: MITF: Counter assay: A375 proliferation Measured in Cell-Based System Using Plate Reader - 2084-03_Inhibitor_Dose_DryPowder_Activity. [Related pubchem assays (depositor defined):AID488944]; type: functional; conditions: Homo sapiens
[2] = biological target: Peroxisome proliferator-activated receptor gamma/Nuclear receptor coactivator 1 (Homo sapiens, UniProt P37231); type: functional;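 note: agonist potency as compounds enhance coactivator SRC-1 recruitment to PPARgamma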
Sequence of Peroxisome proliferator-activated receptor gamma/Nuclear receptor coactivator 1 (P37231 whole entry): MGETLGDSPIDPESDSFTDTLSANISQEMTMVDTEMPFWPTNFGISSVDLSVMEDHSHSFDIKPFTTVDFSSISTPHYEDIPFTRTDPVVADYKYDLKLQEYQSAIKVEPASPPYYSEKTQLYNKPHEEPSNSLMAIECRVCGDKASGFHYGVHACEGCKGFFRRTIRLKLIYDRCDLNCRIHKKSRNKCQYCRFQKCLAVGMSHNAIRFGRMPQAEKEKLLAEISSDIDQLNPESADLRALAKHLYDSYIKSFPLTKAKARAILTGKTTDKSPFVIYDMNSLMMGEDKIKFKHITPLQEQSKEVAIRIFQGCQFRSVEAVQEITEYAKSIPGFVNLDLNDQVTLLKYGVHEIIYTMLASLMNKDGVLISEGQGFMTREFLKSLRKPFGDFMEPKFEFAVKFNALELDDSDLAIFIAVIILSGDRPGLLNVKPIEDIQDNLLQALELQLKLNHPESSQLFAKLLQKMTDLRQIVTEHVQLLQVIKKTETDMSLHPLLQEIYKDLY
Sequence of Peroxisome proliferator-activated receptor gamma/Nuclear receptor coactivator 1 (Q15788 whole entry, further chain): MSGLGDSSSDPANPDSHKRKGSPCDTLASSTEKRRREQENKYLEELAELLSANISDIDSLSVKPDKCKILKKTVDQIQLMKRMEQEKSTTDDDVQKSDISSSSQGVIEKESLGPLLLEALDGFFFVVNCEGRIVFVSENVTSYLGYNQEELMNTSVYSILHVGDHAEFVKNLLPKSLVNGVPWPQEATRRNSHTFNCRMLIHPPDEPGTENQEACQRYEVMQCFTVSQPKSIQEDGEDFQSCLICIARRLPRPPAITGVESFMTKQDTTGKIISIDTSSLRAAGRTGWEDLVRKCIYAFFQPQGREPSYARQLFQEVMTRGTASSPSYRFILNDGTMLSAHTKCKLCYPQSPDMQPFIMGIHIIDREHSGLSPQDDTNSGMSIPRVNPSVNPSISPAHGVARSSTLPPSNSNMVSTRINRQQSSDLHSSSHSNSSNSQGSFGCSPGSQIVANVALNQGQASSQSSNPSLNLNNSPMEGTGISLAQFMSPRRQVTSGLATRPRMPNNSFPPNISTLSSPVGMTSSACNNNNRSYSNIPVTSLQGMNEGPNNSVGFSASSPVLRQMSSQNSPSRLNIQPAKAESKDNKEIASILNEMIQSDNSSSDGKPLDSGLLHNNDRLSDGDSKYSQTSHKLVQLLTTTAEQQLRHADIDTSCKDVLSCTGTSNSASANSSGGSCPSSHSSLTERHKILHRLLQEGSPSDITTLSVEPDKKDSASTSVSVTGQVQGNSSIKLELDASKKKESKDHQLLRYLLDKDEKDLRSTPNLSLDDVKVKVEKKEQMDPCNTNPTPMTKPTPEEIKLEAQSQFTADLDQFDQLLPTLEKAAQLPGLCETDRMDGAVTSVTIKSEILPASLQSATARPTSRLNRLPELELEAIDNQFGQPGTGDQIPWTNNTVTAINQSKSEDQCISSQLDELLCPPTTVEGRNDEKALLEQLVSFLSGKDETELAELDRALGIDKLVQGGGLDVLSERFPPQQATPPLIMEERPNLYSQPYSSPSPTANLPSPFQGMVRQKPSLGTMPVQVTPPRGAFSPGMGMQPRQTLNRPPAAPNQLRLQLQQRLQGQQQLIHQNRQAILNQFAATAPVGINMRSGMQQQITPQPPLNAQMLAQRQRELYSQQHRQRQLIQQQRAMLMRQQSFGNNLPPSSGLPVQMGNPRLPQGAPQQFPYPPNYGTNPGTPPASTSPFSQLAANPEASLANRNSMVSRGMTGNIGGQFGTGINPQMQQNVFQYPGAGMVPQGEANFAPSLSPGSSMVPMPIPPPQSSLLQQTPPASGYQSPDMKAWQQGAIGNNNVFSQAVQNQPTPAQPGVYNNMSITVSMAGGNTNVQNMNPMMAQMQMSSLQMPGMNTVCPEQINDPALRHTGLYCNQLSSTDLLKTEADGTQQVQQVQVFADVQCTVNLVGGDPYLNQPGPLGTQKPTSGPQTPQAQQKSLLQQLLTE

A-375 [3] = assay: proliferation inhibition in MITF-low A375 cells – cell-based, cherry-pick samples, set 2, counter-screen for MITF modulator project, dose response (AID 540335); type: functional; conditions: Homo sapiens
[4] = biological target: Peroxisome proliferator-activated receptor gamma/Nuclear receptor coactivator 2 (Homo sapiens, UniProt P37231); type: functional;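 note: agonist potency for raising coactivator recruitment to the receptor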
[5] = biological target: Peroxisome proliferator-activated receptor gamma/Nuclear receptor coactivator 3 (Homo sapiens, UniProt P37231); type: functional;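 note: agonist potency for raising coactivator recruitment to the receptor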
Jurkat = assay: SAR Analysis of small molecule inhibitors of T-cell specific antigen receptor-induced NF-kB activation in a Jurkat cell line using a luminescence assay - Set 2. [Related pubchem assays (depositor defined):AID435003, AID435012, AID465]; type: functional, cell-based; conditions: Homo sapiens
HEK293 [6] = assay: SAR Analysis of small molecule inhibitors of T-cell specific antigen receptor-induced NF-kB activation in a HEK-293T cell line using a luminescence assay - Set 2. [Related pubchem assays (depositor defined):AID435003, AID435012, AID489026]; type: functional, cell-based; conditions: Homo sapiens
HEK293 [7] = assay: HEK293T cell viability loss, resazurin readout – resazurin fluorescence, cytotoxicity control for NF-kB activator project, SAR follow-up (AID 493251); type: functional, cell-based; conditions: Homo sapiens
[8] = biological target: Voltage-gated inwardly rectifying potassium channel KCNH2 (Homo sapiens, UniProt Q12809); conditions: Potency;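 note: confirmatory quantitative high-throughput screen measuring inhibition of hERG channel activity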
Sequence of Voltage-gated inwardly rectifying potassium channel KCNH2 (Q12809 whole entry): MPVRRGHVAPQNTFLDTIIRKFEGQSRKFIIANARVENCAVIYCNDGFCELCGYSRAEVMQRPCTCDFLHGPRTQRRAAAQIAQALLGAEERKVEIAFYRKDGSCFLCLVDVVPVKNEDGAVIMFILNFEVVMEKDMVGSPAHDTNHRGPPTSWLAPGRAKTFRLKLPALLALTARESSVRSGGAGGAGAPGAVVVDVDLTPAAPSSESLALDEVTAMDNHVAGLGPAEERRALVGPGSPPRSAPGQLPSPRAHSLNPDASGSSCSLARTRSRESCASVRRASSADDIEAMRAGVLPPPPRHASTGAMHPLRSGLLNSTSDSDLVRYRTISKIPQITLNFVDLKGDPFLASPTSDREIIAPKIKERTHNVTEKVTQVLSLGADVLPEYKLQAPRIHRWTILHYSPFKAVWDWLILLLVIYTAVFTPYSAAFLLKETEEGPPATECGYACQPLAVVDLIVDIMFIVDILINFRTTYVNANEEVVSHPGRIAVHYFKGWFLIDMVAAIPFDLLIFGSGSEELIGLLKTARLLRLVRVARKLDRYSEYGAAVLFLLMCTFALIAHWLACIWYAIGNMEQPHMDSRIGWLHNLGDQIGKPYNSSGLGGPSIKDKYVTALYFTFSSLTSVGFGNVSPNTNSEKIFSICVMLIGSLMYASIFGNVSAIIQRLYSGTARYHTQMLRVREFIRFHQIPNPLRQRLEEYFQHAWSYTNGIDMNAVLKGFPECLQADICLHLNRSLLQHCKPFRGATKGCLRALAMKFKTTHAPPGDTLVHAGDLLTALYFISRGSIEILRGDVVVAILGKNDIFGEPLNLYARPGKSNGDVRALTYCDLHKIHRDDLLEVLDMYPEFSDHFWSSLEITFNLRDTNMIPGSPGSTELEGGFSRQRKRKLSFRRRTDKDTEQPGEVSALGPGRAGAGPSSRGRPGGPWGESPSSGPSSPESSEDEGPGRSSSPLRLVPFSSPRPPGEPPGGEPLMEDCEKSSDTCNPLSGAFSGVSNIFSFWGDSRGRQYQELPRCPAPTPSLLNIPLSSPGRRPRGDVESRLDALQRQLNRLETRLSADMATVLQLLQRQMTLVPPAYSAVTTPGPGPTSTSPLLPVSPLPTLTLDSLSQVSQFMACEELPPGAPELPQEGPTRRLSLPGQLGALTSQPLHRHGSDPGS

Phospholipase D2 = Phospholipase D2 (Homo sapiens, UniProt O14939); assay: cellular phospholipase D2 inhibition IC50 – cell-based, dose response (AID 602147); type: functional;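 note: cellular assay in HEK293 cells overexpressing GFP-tagged PLD2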
Sequence of Phospholipase D2 (O14939 whole entry): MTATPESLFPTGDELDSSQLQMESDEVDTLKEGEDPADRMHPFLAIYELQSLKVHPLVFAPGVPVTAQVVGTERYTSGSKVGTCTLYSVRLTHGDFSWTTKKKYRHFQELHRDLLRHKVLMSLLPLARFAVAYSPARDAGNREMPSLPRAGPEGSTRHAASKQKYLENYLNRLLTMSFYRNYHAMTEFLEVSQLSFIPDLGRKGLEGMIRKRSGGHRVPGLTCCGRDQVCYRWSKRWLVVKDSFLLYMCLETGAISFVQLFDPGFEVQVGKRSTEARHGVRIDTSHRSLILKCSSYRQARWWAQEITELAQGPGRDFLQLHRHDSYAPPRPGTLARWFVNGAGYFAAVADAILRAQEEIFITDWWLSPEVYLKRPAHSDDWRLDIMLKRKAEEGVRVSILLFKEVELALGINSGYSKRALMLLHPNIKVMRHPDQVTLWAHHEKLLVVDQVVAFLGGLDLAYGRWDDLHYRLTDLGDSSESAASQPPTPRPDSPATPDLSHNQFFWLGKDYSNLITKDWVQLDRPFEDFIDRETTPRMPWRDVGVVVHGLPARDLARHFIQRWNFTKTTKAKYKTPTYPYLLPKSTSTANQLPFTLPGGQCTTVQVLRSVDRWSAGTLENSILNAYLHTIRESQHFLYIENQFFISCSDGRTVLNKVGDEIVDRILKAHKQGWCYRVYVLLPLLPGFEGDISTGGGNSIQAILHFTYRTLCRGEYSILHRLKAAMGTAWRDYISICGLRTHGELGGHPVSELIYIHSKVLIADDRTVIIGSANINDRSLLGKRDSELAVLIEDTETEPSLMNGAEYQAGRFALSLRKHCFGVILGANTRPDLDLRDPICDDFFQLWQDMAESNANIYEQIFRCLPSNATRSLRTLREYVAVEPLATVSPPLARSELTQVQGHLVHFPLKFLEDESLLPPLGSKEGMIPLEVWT

Phospholipase D1 = Phospholipase D1 (Homo sapiens, UniProt Q13393); assay: cellular phospholipase D1 inhibition IC50 – cell-based, dose response (AID 602151); type: functional;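 note: cellular PLD1 assay in Calu-1 cells stimulated with PMA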
HeLa = assay: ATP-based viability loss in HeLa cells – cell-based, CellTiter-Glo luminescence, cherry-pick samples, cytotoxicity control for MITF activator project, dose response (AID 540259); type: functional; conditions: Homo sapiens
H4 = assay: Luminescence Cell-Based Dose Response HTS to Identify Activators of 5'UTR Stem-Loop Driven Prion Protein mRNA Translation in H4 Neuroglioblastoma Cells. [Related pubchem assays: 1829 (Project Summary), 1814 (Primary HTS)]; type: functional; conditions: Homo sapiens
[9] = Luminescence Cell-Based Dose Response HTS to Identify Activators of Luciferase Translation or Activity in H4 […] Cells. [Related pubchem assays: 1829 (Project Summary), 1814 (Primary HTS)]; type: functional
[10] = biological target: T1, Alkaline phosphatase, tissue-nonspecific isozyme (Homo sapiens, UniProt P05186); assay: activation of tissue-nonspecific alkaline phosphatase – biochemical, TNAP isozyme, mouse IAP uHTS hits, selectivity assay for mouse IAP activator project, dose response (AID 488880); type: functional
T1 sequence (P05186 whole entry): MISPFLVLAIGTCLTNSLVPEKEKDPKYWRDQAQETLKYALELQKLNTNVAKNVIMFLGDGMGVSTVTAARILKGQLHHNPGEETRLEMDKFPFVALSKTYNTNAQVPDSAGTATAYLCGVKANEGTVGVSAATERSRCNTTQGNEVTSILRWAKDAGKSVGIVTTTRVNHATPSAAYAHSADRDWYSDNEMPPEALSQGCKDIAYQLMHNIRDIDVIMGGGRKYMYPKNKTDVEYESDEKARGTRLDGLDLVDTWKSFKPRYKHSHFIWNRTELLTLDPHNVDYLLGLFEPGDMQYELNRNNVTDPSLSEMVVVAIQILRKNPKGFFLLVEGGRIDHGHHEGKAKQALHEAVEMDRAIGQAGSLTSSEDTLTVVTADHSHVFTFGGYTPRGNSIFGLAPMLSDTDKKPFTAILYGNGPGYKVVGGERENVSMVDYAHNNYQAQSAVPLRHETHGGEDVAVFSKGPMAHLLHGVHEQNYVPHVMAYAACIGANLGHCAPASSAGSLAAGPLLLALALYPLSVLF

[11] = biological target: T2, Dual specificity protein phosphatase 6 (Rattus norvegicus, UniProt Q64346); assay: inhibition of rat DUSP6 enzyme activity – biochemical, in vitro, primary screen (AID 425)
T2 sequence (Q64346 whole entry): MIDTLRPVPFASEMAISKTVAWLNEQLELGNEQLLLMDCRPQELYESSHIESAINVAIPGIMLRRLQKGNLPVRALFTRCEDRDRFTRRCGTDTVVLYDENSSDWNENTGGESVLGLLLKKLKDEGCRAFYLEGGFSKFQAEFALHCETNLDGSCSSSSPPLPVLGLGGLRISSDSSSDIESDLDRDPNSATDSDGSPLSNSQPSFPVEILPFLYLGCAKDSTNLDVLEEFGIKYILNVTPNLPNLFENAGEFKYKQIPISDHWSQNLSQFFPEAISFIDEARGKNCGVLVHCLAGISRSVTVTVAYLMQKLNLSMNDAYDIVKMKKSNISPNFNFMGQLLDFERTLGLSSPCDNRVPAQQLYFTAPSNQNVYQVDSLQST

[12] = biological target: Beta-adrenergic receptor kinase 1 (Homo sapiens, UniProt P25098); assay: aptamer displacement from bead-bound GRK2 – biochemical, cherry pick 1, bead flow cytometry, dose response (AID 504500)
[13] = biological target: Intestinal-type alkaline phosphatase (Mus musculus, UniProt P24822); assay: mouse intestinal alkaline phosphatase activators, dose response, biochemical, luminescence, uHTS hits (AID 488783); type: functional
[14] = biological target: Intestinal-type alkaline phosphatase (Homo sapiens, UniProt P09923); assay: activation of human intestinal alkaline phosphatase – biochemical, dose response (AID 488873); type: functional
Sequence of Intestinal-type alkaline phosphatase (Homo sapiens, UniProt P09923) (P09923 whole entry): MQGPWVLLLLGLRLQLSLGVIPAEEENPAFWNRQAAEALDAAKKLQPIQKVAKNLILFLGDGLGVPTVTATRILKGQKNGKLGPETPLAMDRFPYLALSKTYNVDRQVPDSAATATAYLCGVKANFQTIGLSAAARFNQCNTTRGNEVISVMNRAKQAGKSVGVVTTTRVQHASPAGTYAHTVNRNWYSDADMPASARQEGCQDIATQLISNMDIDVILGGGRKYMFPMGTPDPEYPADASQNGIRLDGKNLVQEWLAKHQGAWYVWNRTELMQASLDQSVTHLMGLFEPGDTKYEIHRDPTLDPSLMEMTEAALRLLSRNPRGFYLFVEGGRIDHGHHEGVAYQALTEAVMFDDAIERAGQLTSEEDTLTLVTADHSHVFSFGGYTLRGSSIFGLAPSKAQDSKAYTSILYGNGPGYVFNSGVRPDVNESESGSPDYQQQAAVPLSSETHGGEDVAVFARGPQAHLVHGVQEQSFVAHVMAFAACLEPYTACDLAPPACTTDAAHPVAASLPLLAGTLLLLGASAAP

CC(C)OC(=O)CSc1nc2cc3c(cc2cc1C#N)OCO3
AC50 (A-375 [1]): > 35 µM (active) | EC50 [2]: 11.9 µM (not active) | AC50 (A-375 [3]): > 35 µM (active) | EC50 [4]: 10.2 µM (not active) | EC50 [5]: 18.3 µM (not active)

Cc1ccc(C(NC(=O)C2CCCCC2)c2ccc3cccnc3c2O)cc1 (centres undefined)
IC50 (Jurkat): 2.62 µM (active) | IC50 (HEK293 [6]): 4.93 µM (active) | IC50 (HEK293 [7]): 21 µM (inactive)

CN(C)CCC(c1ccccc1)c1ccccn1 (centres undefined)
AC50 [8]: 35.5 µM (inconclusive)

CN(CCN1CCC2(CC1)C(=O)NCN2c1ccccc1)C(=O)c1ccc2ccccc2c1
IC50 (Phospholipase D2): 20 µM (active) | IC50 (Phospholipase D1): 20 µM (inactive)

CCCc1cc2c(=O)c(-c3ccccn3)coc2cc1OC
AC50 (HeLa): 73.5 µM (active) | EC50 (H4): > 120 µM (not active) | EC50 [9]: 0.182 µM (active)

CCOC(=O)C(C)Sc1nc2c(c(=O)[nH]c(=O)n2C)n1C/C=C(/C)Cl (centres undefined)
EC50 [10]: 66.9 µM (active) | IC50 [11]: > 10 µM (not active) | EC50 [12]: 22.1 µM (inactive) | EC50 [13]: 69.8 µM (active) | EC50 [14]: 74.2 µM (active)
